Experimental data as given in patent EP2608770B1, “INHALABLE GASEOUS DRUG CONTAINING KRYPTON FOR TREATING NEURO-INTOXICATION” (L'Air Liquide Société Anonyme pour l'Etude et …, priority 2010, dated 2012).

Tested on: U2OS
Experiment: Cell death and apoptosis in U2OS cells exposed to cytotoxic agents (staurosporine, rotenone, antimycin A, menadione, mitoxantrone) under a krypton atmosphere, read by automated fluorescence microscopy
Format: cell-based
Conditions: cells kept in an atmosphere formed of krypton, measured after 6 and 16 hours of incubation
Source text: Des essais ont été réalisés pour démontrer que le krypton présente un effet protecteur cérébral de par sa capacité à protéger la cellule du phénomène de la mort cellulaire programmée ou apoptose, qui est la conséquence ultime des neuro-intoxications telles que décrites dans le syndrome d'ischémie-reperfusion, d'addictions... […]
Les cellules ont été ensuite analysées dans un automate BD Pathway Fluorescence Microscope afin de déterminer les paramètres suivants : • apoptose cellulaire définit par GFP-H2B ou DAPI-condensation chromatine mesurable), • autophagie définit par GFP-LC3 puncta, • nécrose définit par l'exsudation de HMGB1 du noyau, • aberrations mitotiques définit par GFP-H2B et Red-Centrin, • niveau de stress ER définit par GFP-G3B puncta, • cycle cellulaire définit par l'incorporation de […] dans les cellules en phase S, ainsi que l'analyse du DNA. […]

[Kr] [krypton]
capacités fonctionnelles et intégrité physiques des cellules: conservent leurs capacités fonctionnelles ainsi que leur intégrité physiques | signes d'apoptose cellulaire (apoptosis defined by GFP-H2B or DAPI chromatin condensation): diminue les signes d'apoptose cellulaire
